# Source: patent US9187463B2, “Polymorph form of 4-{[4-({[4-(2,2,2-trifluoroethoxy)-1,2-benzisoxazol-3-yl]oxy}methyl)piperidin-1-yl]methyl}-tetrahydro-2H-pyran-4-carboxylic acid” (RAQUALIA PHARMA INC., priority 2011, dated 2015)
# What was measured:
# Assay type in all cases: physicochemical
# [1] = Hygroscopicity study by dynamic vapor sorption (DVS) analysis; conditions: for weight gain %: 25° C., DVS sorption
# Method: Hygroscopicity study is performed using Surface Measurement Systems DVS-1. The sample is placed on a microbalance in the instrument. After the sample is dried under 0% humidity environment at 25° C., relative humidity is raised to 95% RH at 5% RH increments, maintaining the sample at each step until equilibration had been attained. After completion of the sorption cycle, the sample is dried to 10% RH using the same procedure (desorption cycle). The weight change during the sorption/desorption cycle is monitored, allowing for the hygroscopic nature of the sample to be determined.
# In the hygroscopicity study by dynamic vapor sorption (DVS) analysis, Polymorph Form I absorbs less than 0.2 wt % under 90% relative humidity (RH) at 25° C. On the other hand, the white solid disclosed in the prior art WO2006/090224 absorbs 1.2 wt % and 5.5 wt % of water under 85% RH and 90% RH, respectively.
# [2] = Solid-state stability study (temperature/humidity chamber, Xenon lamp)
# Method: Solid-state stability study is performed using Nagano Science Constant temperature/humidity control chamber LH-20-11M, LH-21-11M, LTL-200D3CJ-14 or LTX-01. The sample is placed in the chamber and exposed under 25° C./60% RH, 40° C./75% RH and/or irradiated with a Xenon lamp. The crystalline form, thermal behavior, purity and/or weight change of the resultant sample after the exposure or irradiation are evaluated by XRPD, TG/DTA or DSC, HPLC, microbalance analysis, respectively.
# [3] = Thermal polymorph transformation monitored by variable-temperature PXRD; conditions: heating
# Method: The PXRD analyses are performed using a Rigaku RINT-TTR X-ray powder diffractometer using Cu-Kα radiation. The samples can also be measured under the high/low temperature condition by using the attachment of the variant-temperature sample holder. The instrument is equipped with a fine focus X-ray tube. The tube voltage and amperage are set to 50 kV and 300 mA respectively. The divergence and scattering slits are set at 0.25° and the receiving slit is set at 0.15 mm. Diffracted radiation is detected by a NaI scintillation detector. A theta-two theta continuous scan at 4°/min (step size 0.02°) from 3 to 40 2-Theta° is used. A silicon standard is analyzed to check the machine alignment. Data are collected and analyzed using-Rigaku X-ray system. Samples are prepared for analysis by placing them in an aluminum sample holder that is horizontally rotated at 60 rpm during data acquisition.
# Polymorph Form I begins to transform to Polymorph Form II at around 110° C. […]
# [4] = 90% relative humidity (RH) at 25° C.
weight gain % ([1]; 75% RH) [%],weight gain % ([1]; 80% RH) [%],weight gain % ([1]; 85% RH) [%],weight gain % ([1]; 90% RH) [%],"water absorbed (DVS) [1, 4]",stability compared with white solid of WO2006/090224 [2],temperature at which transformation to Polymorph Form II begins [3],water absorbed (DVS) ([1]; 85% RH) [wt %],Structure (SMILES)
0.15,0.15,0.15,0.18,less than 0.2 wt %,more stable than white solid,around 110 °C,–,"O=C(O)C1(CN2CCC(COc3noc4cccc(OCC(F)(F)F)c34)CC2)CCOCC1 [Polymorph Form I, 4-{[4-({[4-(2,2,2-trifluoroethoxy)-1,2-benzisoxazol-3-yl]oxy}methyl)piperidin-1-yl]methyl}-tetrahydro-2H-pyran-4-carboxylic acid]"
–,–,–,–,–,more stable than white solid,–,–,"O=C(O)C1(CN2CCC(COc3noc4cccc(OCC(F)(F)F)c34)CC2)CCOCC1 [Polymorph Form II, 4-{[4-({[4-(2,2,2-trifluoroethoxy)-1,2-benzisoxazol-3-yl]oxy}methyl)piperidin-1-yl]methyl}-tetrahydro-2H-pyran-4-carboxylic acid]"
0.33,0.35,1.2,5.5,5.5 wt %,–,–,1.2,"O=C(O)C1(CN2CCC(COc3noc4cccc(OCC(F)(F)F)c34)CC2)CCOCC1 [White solid disclosed in the prior art WO2006/090224] [4-{[4-({[4-(2,2,2-Trifluoroethoxy)-1,2-benzisoxazol-3-yl]oxy}methyl)piperidin-1-yl]methyl}-tetrahydro-2H-pyran-4-carboxylic acid]"
